Experimental data as given in patent US10125116B2, “Compounds and methods for treating mammalian gastrointestinal microbial infections” (Brandeis University, priority 2009, dated 2018).
Read-outs that look alike come from different tables or passages of the source.

How the values were obtained:
T. gondii-CpIMPDH = T. gondii-CpIMPDH fluorescence growth assay; type: cell-based, Toxoplasma gondii
HCT-8 cells = test: fluorescent HCT-8 host cell growth assay; type: cell-based, human
Text: The differentiation of selective antiparasitic effects from those that are a secondary consequence of a host cell effect is a critical issue in drug discovery for intracellular parasites. Cytotoxicity assays commonly reflect plasma membrane integrity, and are a crude measure of host cell effects—it is conceivable that more subtle perturbations of host cell metabolism can have an adverse effect on parasite proliferation. Therefore we sought to develop a simple and inexpensive assay of host cell growth. The human ileocecal adenocarcinoma epithelial cell line, HCT-8, which is commonly used to maintain C. parvum infection in tissue culture, was engineered to constitutively express a green fluorescent protein (GFP). Growth of this cell line was monitored daily using a fluorescent plate reader. […] These experiments validate the use of the fluorescent HCT-8 cell growth assay.
HCT-8 cells were transfected with the pmaxGFP plasmid (Amaxa) using Lipofectamine (Invitrogen) following the manufactures instruction. Fluorescent lines were then selected and cloned using FACS. Confluent monolayers of pmaxGFP expressing cells were harvested from T75 flasks and passed through a 40 μm cell strainer. Cells were then seeded at 4000 cells per well in a volume of 200 μL into black, optical quality, thin bottom, 96-well plates (DB Falcon). All test compounds were diluted in DMSO to prepare a 200× working stock for each dilution. Appropriate wells were spiked with 1 μl such that the final concentration of DMSO was 0.5%. The fluorescence was read daily with a SpectraMax M22/M2e (Molecular Devices) plate reader (Ex 485, Em 530) for 6-7 days. The percent inhibition was calculated on a day within the exponential phase of growth.

[1] = molecular target: CpIMPDH, HpIMPDH, BbIMPDH, SpIMPDH, EcIMPDH and TfIMPDH
wild-type T. gondii = wild-type T. gondii fluorescence growth assay; type: cell-based; details: Toxoplasma gondii
T. gondii-ΔHXGPRT = T. gondii-ΔHXGPRT fluorescence growth assay; type: cell-based; details: Toxoplasma gondii, read-out: EC50 T. gondii-ΔHXGPRT growth
[2] = system: primary human, mouse, rat, and dog lymphocytes; details: cited from earlier work
[3] = read-out: intrinsic Ki (adjusted for competition from the mobile flap), range over IMPDHs

| Structure (SMILES) | melting point | other results |
| --- | --- | --- |
| CC(Oc1ccnc2ccccc12)c1cn(-c2ccc(C#N)c(Cl)c2)nn1 (centres unmarked) | 194 to 196 °C |  |
| C[C@@H](Oc1ccnc2ccccc12)c1cn(-c2ccc(C#N)c(Cl)c2)nn1 | 176 to 178 °C |  |
| C[C@H](Oc1ccnc2ccccc12)c1cn(-c2ccc(C#N)c(Cl)c2)nn1 | 176 to 178 °C |  |
| CC(Oc1ccc(Cl)c2ccccc12)c1cn(-c2ccc(Cl)cc2)nn1 (centres unmarked) [A82] |  | selectivity for T. gondii-CpIMPDH parasite over wild-type T. gondii (T. gondii-CpIMPDH): little selectivity; host cell (HCT-8) growth effect, in words (HCT-8 cells): do not inhibit host cell growth |
| CC(Oc1ccnc2ccccc12)c1cn(-c2ccc(Cl)c(Cl)c2)nn1 (centres unmarked) [A90] |  | selectivity for T. gondii-CpIMPDH parasite over wild-type T. gondii (T. gondii-CpIMPDH): little selectivity; host cell (HCT-8) growth effect, in words (HCT-8 cells): do not inhibit host cell growth |
| C[C@@H](Oc1ccnc2ccccc12)c1cn(-c2ccc(Cl)c(Cl)c2)nn1 [A105] |  | selectivity for T. gondii-CpIMPDH parasite over wild-type T. gondii (T. gondii-CpIMPDH): little selectivity; host cell (HCT-8) growth effect, in words (HCT-8 cells): do not inhibit host cell growth |
| C[C@@H](Oc1cc[n+]([O-])c2ccccc12)c1cn(-c2ccc(Cl)cc2)nn1 [A110] |  | host cell (HCT-8) growth effect, in words (HCT-8 cells): negligible effects on host cell growth |
| Nc1ncnc2c1ncn2[C@@H]1O[C@H](COP(=O)(O)OP(=O)(O)O)[C@@H](O)[C@H]1O [ADP] |  | Ki [1, 3]: 200 to 9000 µM |
| CC(Oc1cccc2ccccc12)c1cn(-c2ccc(Cl)cc2)nn1 (centres unmarked) [Compound 1, 1-(4-chlorophenyl)-4-(1-(naphthalene-1-yloxy)ethyl)-1H-1,2,3-triazole] | 98 to 100 °C |  |
| CC(Oc1ccnc2ccccc12)c1cn(-c2ccc(Cl)cc2)nn1 (centres unmarked) [Compound 13, 4-(1-(1-(4-chlorophenyl)-1H-1,2,3-triazol-4-yl)ethoxy)quinoline] | 128 to 130 °C |  |
| CC(Oc1ccnc2ccccc12)c1cn(-c2ccc(Cl)c(Cl)c2)nn1 (centres unmarked) [Compound 14, 4-(1-(1-(3,4-dichlorophenyl)-1H-1,2,3-triazol-4-yl)ethoxy)quinoline] | 62 to 64 °C |  |
| CC(Oc1ccnc2ccccc12)c1cn(-c2ccc(C#N)cc2)nn1 (centres unmarked) [Compound 15, 4-(4-(1-(quinolin-4-yloxy)ethyl)-1H-1,2,3-triazol-1-yl)benzonitrile] | 176 to 178 °C |  |
| Clc1ccc(-n2cc(COc3ccnc4ccccc34)nn2)cc1 [Compound 17, 4-((1-(4-chlorophenyl)-1H-1,2,3-triazol-4-yl)methoxy)quinoline] | 230 to 232 °C |  |
| C[C@@H](Oc1cccc2ncccc12)c1cn(-c2ccc(Cl)cc2)nn1 [Compound 21, (R)-5-(1-(1-(4-chlorophenyl)-1H-1,2,3-triazol-4-yl)ethoxy)quinoline] | 94 to 96 °C |  |
| CC(Oc1cccc2c1ccc[n+]2[O-])c1cn(-c2ccc(Cl)cc2)nn1 (centres unmarked) [Compound 25, 5-(1-(1-(4-chlorophenyl)-1H-1,2,3-triazol-4-yl)ethoxy)quinoline 1-oxide] | 165 to 167 °C |  |
| CC(Oc1cc[n+]([O-])c2ccccc12)c1cn(-c2ccc(Cl)c(Cl)c2)nn1 (centres unmarked) [Compound 26, 4-(1-(1-(3,4-dichlorophenyl)-1H-1,2,3-triazol-4-yl)ethoxy)quinoline 1-oxide] | 216 to 218 °C |  |
| C[C@@H](Oc1ccnc2ccccc12)c1cn(-c2ccc(Cl)c(Cl)c2)nn1 [Compound 28, (R)-4-(1-(1-(3,4-dichlorophenyl)-1H-1,2,3-triazol-4-yl)ethoxy)quinoline] | 62 to 64 °C |  |
| C[C@H](Oc1ccnc2ccccc12)c1cn(-c2ccc(Cl)c(Cl)c2)nn1 [Compound 30, (S)-4-(1-(1-(3,4-dichlorophenyl)-1H-1,2,3-triazol-4-yl)ethoxy)quinoline] | 64 to 66 °C |  |
| C[C@@H](Oc1cccc2c1ccc[n+]2[O-])c1cn(-c2ccc(Cl)cc2)nn1 [Compound 32, (R)-5-(1-(1-(4-chlorophenyl)-1H-1,2,3-triazol-4-yl)ethoxy)quinoline 1-oxide] | 184 to 186 °C |  |
| CC(Oc1cccc2ccccc12)C(=O)Nc1ccc(Cl)cc1 (centres unmarked) [Compound 93, N-(4-chlorophenyl)-2-(1-naphthalenyloxy)propanamide] | 146 to 148 °C |  |
| O=C(Nc1ccc(Cl)cc1)C(Oc1cccc2ccccc12)c1ccccc1 (stereo not drawn) [Compound 102, N-(4-chlorophenyl)-α-(1-naphthalenyloxy)benzeneacetamide] | 176 to 178 °C |  |
| CC(Oc1ccnc2ccccc12)C(=O)Nc1ccc(Cl)cc1 (centres unmarked) [Compound 114, N-(4-chlorophenyl)-2-[[4-quinolinyl]oxy]propanamide] | 170 to 172 °C |  |
| CC(C)C(Oc1cccc2ccccc12)C(=O)Nc1ccc(Cl)cc1 (centres unmarked) [Compound 116, N-(4-chlorophenyl)-3-methyl-2-(1-naphthalenyloxy)butanamide] | 150 to 152 °C |  |
| O=C(Nc1ccc(Cl)cc1)C(Oc1cccc2ccccc12)C1CC1 (centres unmarked) [Compound 119, N-(4-chlorophenyl)-2-cyclopropyl-2-(1-naphthalenyloxy)acetamide] | 204 to 206 °C |  |
| COc1c(C)c2c(c(O)c1C/C=C(\C)CCC(=O)O)C(=O)OC2 [MPA, mycophenolic acid] |  | EC50 (T. gondii-CpIMPDH; Toxoplasma gondii, read-out: EC50 T. gondii-CpIMPDH growth): > 65 µM; EC50 (wild-type T. gondii; media with xanthine (0.33 mM), read-out: EC50 wild-type T. gondii growth, xanthine supplemented): ≥ 78 µM; EC50 (wild-type T. gondii; read-out: EC50 wild-type T. gondii growth): 2.6 µM; EC50 (T. gondii-ΔHXGPRT): 0.29 µM |
| CCCC(=O)[O-].[Na+] [Sodium butyrate, reference compound] |  | host cell (HCT-8) growth effect, in words (HCT-8 cells; human): inhibit HCT-8 growth in a dose-dependent manner |
| NC(=O)c1csc([C@@H]2O[C@H](CO)[C@@H](O)[C@H]2O)n1 [Tiazofurin, tiazofurin] |  | Ki ([1]; read-out: Ki (observed), range over prokaryotic IMPDHs): 1000 to 69000 µM; Ki [1, 3]: 300 to 700 µM |
| COc1cc(NC(=O)Nc2cccc(CNC(=O)O[C@H]3CCOC3)c2)ccc1-c1cnco1 [merimepodib] |  | concentration inhibiting lymphocyte proliferation [2]: ~100 nM |
